The record followed here is ChEMBL document CHEMBL1201862, “PubChem BioAssay data set” (2004).

Test systems include 786-0; CAKI-1; CCRF-CEM; HCC 2998; HOP-62; HT-29; IGROV-1; KM-20L2; MDA-MB-435; MDA-N; MOLT-4; NCI-H23; NCI-H522; OVCAR-4; OVCAR-8; SF-295; SK-OV-3; SNB-78; TK-10; UO-31.
Holding throughout (experiment): NCI-60 cell line screen, 48 h

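Each compound was tested at five concentrations against cells in 96-well plates for 48 hours. GI50 = concentration required for 50% inhibition of growth.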 Activity calls are given as the source filed them. Rule as the data show it: active = GI50 up to about 1.1 µM and inactive = higher.

`COc1ccccc1/C=C1\CCC(Cc2ccccc2)(CN(C)C)C1=O` (stereo not given): the GI50 in the experiment on 786-0 was 1.43 µM (inactive); in the experiment with CAKI-1, 2.38 µM (inactive); in the experiment with CCRF-CEM it was 0.528 µM (active); in the experiment on HCC 2998 it was 3.13 µM (inactive); with HOP-62 it was 11.6 µM (inactive); in the experiment with HT-29, 0.426 µM (active). Also, the GI50 in the experiment on IGROV-1 was 3.67 µM (inactive); in the experiment on KM-20L2 it was 0.644 µM (active); in the experiment on MDA-MB-435, 1.07 µM (active); in the experiment with MDA-N it was 685 nM (active); with MOLT-4, 1.05 µM (active); in the experiment on NCI-H23, 6.43 µM (inactive). Further, the GI50 in the experiment with NCI-H522 is 0.597 µM (active); in the experiment with OVCAR-4, 17.8 µM (inactive); with OVCAR-8, 2.33 µM (inactive); in the experiment with SF-295, 1.34 µM (inactive); with SK-OV-3 it was 8.36 µM (inactive); in the experiment on SNB-78, 2.13 µM (inactive). Besides, the GI50 in the experiment with TK-10 is 5.96 µM (inactive); in the experiment on UO-31 it was 7.59 µM (inactive).

For `COC1C(CO)OC(n2c3c(Cl)cccc3c3c4c(c5c6cccc(Cl)c6[nH]c5c32)C(=O)NC4=O)C(O)C1O` (stereo not given), the GI50 is 0.133 µM (active) in the experiment with 786-0; 0.169 µM (active) in the experiment on CAKI-1; 0.0367 µM (active) with CCRF-CEM; 0.367 µM (active) with HCC 2998; 0.177 µM (active) in the experiment on HOP-62; 0.244 µM (active) in the experiment with HT-29. The GI50 in the experiment with IGROV-1 was 0.299 µM (active); in the experiment with KM-20L2, 0.586 µM (active); in the experiment on MDA-MB-435, 0.306 µM (active); in the experiment on MDA-N, 324 nM (active); with MOLT-4 it was 0.0498 µM (active); with NCI-H23, 0.153 µM (active). For the same molecule, the GI50 is 0.21 µM (active) with NCI-H522; 0.337 µM (active) in the experiment on OVCAR-4; 0.177 µM (active) in the experiment on OVCAR-8; 0.286 µM (active) in the experiment with SF-295; 0.303 µM (active) in the experiment on SK-OV-3; 0.631 µM (active) in the experiment with SNB-78. Also, the GI50 is 0.47 µM (active) with TK-10 and 0.296 µM (active) in the experiment on UO-31.

As to `COC(=O)C(C)(C)/N=C/N(C)C`, the GI50 in the experiment with 786-0 is > 100 µM (inactive); in the experiment on CAKI-1 it was > 100 µM (inactive); in the experiment on CCRF-CEM it was 72.6 µM (inactive); with HCC 2998, > 100 µM (inactive); in the experiment with HOP-62, > 100 µM (inactive); in the experiment with HT-29, > 100 µM (inactive). Also, the GI50 with IGROV-1, in the experiment on KM-20L2, with MOLT-4, in the experiment with NCI-H23, in the experiment with NCI-H522 and in the experiment with OVCAR-4 was > 100 µM (inactive) in each case. For the same molecule, the GI50 with OVCAR-8, in the experiment on SF-295, with SK-OV-3, in the experiment on SNB-78, in the experiment with TK-10 and in the experiment on UO-31 was > 100 µM (inactive) throughout.

Regarding `O=C(/C=C/c1ccc(O)c(O)c1)c1ccc(O)cc1O` [BUTEIN], the GI50 in the experiment on 786-0 is 12 µM (inactive); in the experiment on CAKI-1, 10.5 µM (inactive); in the experiment on CCRF-CEM, 3.75 µM (inactive); in the experiment on HCC 2998, 17.1 µM (inactive); in the experiment on HOP-62 it was 17.4 µM (inactive); in the experiment with HT-29, 17.5 µM (inactive). The GI50 is 15.2 µM (inactive) in the experiment on IGROV-1; 17.1 µM (inactive) in the experiment with KM-20L2; 9.08 µM (inactive) in the experiment on MDA-MB-435; 6140 nM (inactive) in the experiment on MDA-N; 7.64 µM (inactive) in the experiment with MOLT-4; 16.7 µM (inactive) in the experiment on NCI-H23. Further, the GI50 is 2.25 µM (inactive) with NCI-H522; 19.1 µM (inactive) in the experiment with OVCAR-4; 17.9 µM (inactive) in the experiment with OVCAR-8; 22.3 µM (inactive) with SF-295; 15.7 µM (inactive) in the experiment on SK-OV-3; 20.8 µM (inactive) in the experiment with SNB-78. The results for the GI50 with TK-10 and in the experiment with UO-31 were 19.4 µM (inactive) and 14 µM (inactive), respectively.

As to `NCCOc1ccc(/C(=C(/Cl)c2ccccc2)c2ccccc2)cc1`, the GI50 is 7.94 µM (inactive) with 786-0; 8.34 µM (inactive) with CAKI-1; 7.11 µM (inactive) in the experiment with CCRF-CEM; 4.34 µM (inactive) with HCC 2998; 17.9 µM (inactive) in the experiment with HOP-62; 3.14 µM (inactive) in the experiment with HT-29. Further, the GI50 in the experiment with IGROV-1 is 14.4 µM (inactive); in the experiment on KM-20L2, 6.62 µM (inactive); in the experiment on MOLT-4, 3.14 µM (inactive); with NCI-H23, 16 µM (inactive); in the experiment on NCI-H522 it was 12.4 µM (inactive); in the experiment with OVCAR-4, 13 µM (inactive). Further, the GI50 with OVCAR-8 was 14 µM (inactive); in the experiment with SF-295, 14.4 µM (inactive); in the experiment with SK-OV-3, 16.9 µM (inactive); with SNB-78 it was 10 µM (inactive); with TK-10, 12.9 µM (inactive); in the experiment with UO-31, 9.16 µM (inactive).

As to `CC(C)NC(=O)OCc1c(COC(=O)NC(C)C)c(-c2ccc(Cl)c(Cl)c2)n2c1CCC2`, the GI50 in the experiment on 786-0 was 20.7 µM (inactive); in the experiment on CAKI-1 it was 20.9 µM (inactive); in the experiment on CCRF-CEM, 26.5 µM (inactive); in the experiment on HCC 2998 it was 43.6 µM (inactive); in the experiment on HOP-62 it was 38.5 µM (inactive); with HT-29 it was 40.9 µM (inactive). Besides, the GI50 in the experiment with IGROV-1 is 50 µM (inactive); in the experiment on KM-20L2 it was 35.1 µM (inactive); in the experiment with MDA-MB-435 it was > 100 µM (inactive); in the experiment with MOLT-4, 13.7 µM (inactive); with NCI-H23, 46.9 µM (inactive); in the experiment with NCI-H522 it was > 62.4 µM (inactive). Also, the GI50 with OVCAR-4 is > 66.5 µM (inactive); with OVCAR-8, 46.6 µM (inactive); in the experiment with SF-295, 48.1 µM (inactive); in the experiment with SK-OV-3, 61.4 µM (inactive); in the experiment on SNB-78, 21.2 µM (inactive); in the experiment with TK-10 it was 41.7 µM (inactive). Also, the GI50 with UO-31 is 45 µM (inactive).
